Data set [1] deals with HBV. In words: Anti-HBV activity in vitro in HepG2.2.15 cells (extracellular HBV DNA by qPCR). Format: cell-based, Hepatitis B virus. The following applies: Hepatitis B virus; HepG2.2.15 cells; in-house data; read-out: EC50. An excerpt: (§1) HepG2.2.15 and HepDE19 are stably-transfected cell lines containing the HBV genome. Both cell lines are derived from the hepatoblastoma cell line Hep G2 (American Type Culture Collection, ATCC® HB-8065™) by the published procedures described in references: MA Selles et al. Proc. Natl. Acad. Sci. USA 1987, 84, 1005-1009 and H Guo et al. Journal of Virology 2007, 81, 12472-12484, respectively. Both cell lines were maintained in Dulbecco's modified Eagle's medium (DMEM)-F12 medium supplemented with 10% fetal bovine serum, 100 U/mL penicillin, 100 μg/mL streptomycin, and 0.5 mg/mL of G418.
While HepG2.2.15 cells constitutively support HBV replication and production of virus particles, HepDE19 cells are inducible by tetracycline. Addition of 1 μg/mL tetracycline in culture medium suppresses HBV replication in HepDE19 cells, whereas switching to tetracycline-free medium resumes this process.
HepG2.2.15 cells were seeded into 96-well plates (3×10^4 cells in 100 μl media per well) and incubated overnight at 37° C. The test compounds were serially half-log diluted in DMSO, then diluted 100 times in culture media. 100 μL diluted compounds were added into the plates to reach 0.5% final concentration of DMSO in every well. Five days after compound treatment, culture supernatant was collected for further analysis.
For quantitative PCR detection of extracellular HBV DNA, 100 μL culture supernatant was collected and processed in MagNA Pure 96 Nucleic Acid Purification System (Roche Applied Science) for viral DNA extraction. The extracted samples were subjected to HBV DNA quantification by qPCR.
The compounds of the present invention were tested for their capacity to inhibit a HBV activity and activation as described herein.

Data set [2] is described as follows: Cytotoxicity (CC50) in HepDE19 cells, CCK-8 cell viability. Type of data set: cell-based. The following applies: human, HepDE19 cells; read-out: CC50.
From the text: as §1
Five days after treatment, cell viability was measured by addition of 20 μL of CCK-8 reagent. Two hours after incubation at 37° C., the absorbance at wavelengths of 450 nm and 630 nm (OD450 and OD630) was recorded by a plate reader.

The subject of data set [3] is HBV. In words: Selectivity index (CC50 value/EC50 value). Format: cell-based, Hepatitis B virus. An excerpt: Based on FDA guidance, in order to support clinical testing in humans, the assessment of acceptable risk-benefit has to be achieved by providing clear evidence of in vitro antiviral activity (EC50) and cytotoxicity (CC50). It is important to establish that an investigational product has antiviral activity at concentrations that can be achieved in vivo without inducing toxic effects to cells. Furthermore, in a cell culture model, apparent antiviral activity of an investigational product can be the result of host cell death after exposure to the product. The relative effectiveness of the compound in inhibiting viral replication compared to inducing cell death is defined as the selectivity index (CC50 value/EC50 value). It is desirable to have a high selectivity index giving maximum antiviral activity with minimal cell toxicity.
The relative effectiveness of the compound in inhibiting viral replication compared to inducing cell death is defined as the selectivity index (CC50 value/EC50 value). It is desirable to have a high selectivity index giving maximum antiviral activity with minimal cell toxicity.

A short description of data set [4]: Metabolic stability study in human microsome. Format: in vitro ADME. An outline of the steps:
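Human liver microsomes (0.5 mg/mL) with 1 μM compound in 100 mM phosphate pH 7.4 at 37 °C, started with 1 mM NADPH or an NADPH-regenerating system. Samples taken at 0, 3, 6, 9, 15 and 30 min, quenched in methanol. Parent remaining measured by LC-MS/MS; no-cofactor controls included.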

The nature of data set [5]: Lyophilisation solubility assay (Lysa). Type of data set: physicochemical. The following applies: phosphate buffer, pH 6.5, aqueous buffer, thermodynamic from solid. An outline of the steps:
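Duplicate samples from 10 mM DMSO stocks are dried, redissolved in 0.05 M phosphate buffer pH 6.5, stirred 1 h, shaken 2 h and left overnight. Filtrate and its 1/10 dilution are quantified by direct UV or HPLC-UV, giving solubility in μg/mL.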

Converted amounts (≈) assume the structure as drawn.

We go through 13 compounds from patent publication US9447086B2, “6-amino acid heteroaryldihydropyrimidines for the treatment and prophylaxis of hepatitis B virus infection” (priority 2012, dated 2016).

In the case of `COC(=O)C1=C(CN2CCOC[C@]2(C)C(=O)O)NC(c2nccs2)=N[C@H]1c1ccc(F)c(F)c1Cl` (single isomer, unassigned) [Example 79], the EC50 with HBV [1] is 4.5 nM. The CC50 at 5 days in data set [2] worked out at 76 µM. Further, in the data set with HBV [3], the “Selectivity index (CC50/EC50)” value turned out to be 16889. Further, the “Human Hepatic Clearance” value in data set [4] is reported as 2.18 mL/min/kg. Moreover, the thermodynamic solubility in data set [5] is above 660 µg/mL.
The matching figures for `[2H][C@@]1(c2ccc(F)cc2Cl)N=C(c2nccs2)NC(CN2CC(F)(F)C[C@H]2C(=O)O)=C1C(=O)OC` [Example 3, (S)-6-((S)-2-Carboxy-4,4-difluoro-pyrrolidin-1-ylmethyl)-4-(2-chloro-4-fluoro-phenyl)-[4-^2H]-2-thiazol-2-yl-1,4-dihydro-pyrimidine-5-carboxylic acid methyl ester]: 1.1 nM, 97 µM, 88182, 9.21 mL/min/kg and above 644 µg/mL.
In the same order, the values of `COC(=O)C1=C(CN2CCOC[C@H]2C(=O)O)NC(c2ncc(F)cc2F)=N[C@H]1c1ccc(F)cc1Cl` [Example 6, (S)-4-[(R)-6-(2-Chloro-4-fluoro-phenyl)-2-(3,5-difluoro-pyridin-2-yl)-5-methoxycarbonyl-3,6-dihydro-pyrimidin-4-ylmethyl]-morpholine-3-carboxylic acid] are 7.5 nM, 27 µM, 3600, 6.28 mL/min/kg and above 100 µg/mL.
On to `COC(=O)C1=C(CN2CC(F)(F)C[C@H]2C(=O)O)NC(c2nc(C3CC3)cs2)=N[C@H]1c1ccc(F)cc1Cl` [Example 10, (R)-6-((S)-2-Carboxy-4,4-difluoro-pyrrolidin-1-ylmethyl)-4-(2-chloro-4-fluoro-phenyl)-2-(4-cyclopropyl-thiazol-2-yl)-1,4-dihydro-pyrimidine-5-carboxylic acid methyl ester], for which the EC50 in the data set on HBV [1] stood at 7.3 nM. Also, the CC50 at 5 days in data set [2] turned out to be 39 µM. The “Selectivity index (CC50/EC50)” value in the data set on HBV [3] turned out to be 5342. Besides, the “Human Hepatic Clearance” value in data set [4] is on record as 8.76 mL/min/kg. In addition, the thermodynamic solubility in data set [5] was 246 µg/mL (≈ 443 µM).
For the compound `COC(=O)C1=C(CN2CC(F)(F)C[C@H]2C(=O)O)NC(c2cc(F)cs2)=N[C@H]1c1ccc(F)cc1Cl` [Example 12, (R)-6-((S)-2-Carboxy-4,4-difluoro-pyrrolidin-1-ylmethyl)-4-(2-chloro-4-fluoro-phenyl)-2-(4-fluoro-thiophen-2-yl)-1,4-dihydro-pyrimidine-5-carboxylic acid methyl ester], the EC50 in the data set with HBV [1] worked out at 9.3 nM. Besides, in data set [2], the CC50 at 5 days was above 100 µM. Moreover, the “Selectivity index (CC50/EC50)” value in the data set on HBV [3] is recorded as above 10753. In data set [4], the “Human Hepatic Clearance” value is given as 5.55 mL/min/kg. Moreover, the solubility (thermodynamic) in data set [5] amounted to 488 µg/mL (≈ 917 µM).
The matching figures for `[2H]C1([2H])[C@@H](C(=O)O)N(CC2=C(C(=O)OC)[C@H](c3ccc(F)cc3Cl)N=C(c3nccs3)N2)CC1(F)F` [Example 19, (R)-6-((S)-2-Carboxy-[3,3-^2H2]-4,4-difluoro-pyrrolidin-1-ylmethyl)-4-(2-chloro-4-fluoro-phenyl)-2-thiazol-2-yl-1,4-dihydro-pyrimidine-5-carboxylic acid methyl ester]: 5.7 nM, 89 µM, 15614, 3.65 mL/min/kg and above 654 µg/mL.
The matching figures for `COC(=O)C1=C(CN2CC(F)(F)C[C@H]2C(=O)O)NC(c2nc(C(F)(F)F)cs2)=N[C@H]1c1ccc(F)cc1Cl` [Example 25, (R)-6-((S)-2-Carboxy-4,4-difluoro-pyrrolidin-1-ylmethyl)-4-(2-chloro-4-fluoro-phenyl)-2-(4-trifluoromethyl-thiazol-2-yl)-1,4-dihydro-pyrimidine-5-carboxylic acid methyl ester]: 5 nM, above 100 µM, above 20000, 9.34 mL/min/kg and 546 µg/mL (≈ 937 µM).
For the compound `COC(=O)C1=C(CN2CC(F)(F)C[C@H]2C(=O)O)NC(c2nc(C(C)C)cs2)=N[C@H]1c1ccc(F)cc1Cl` [Example 28, (R)-6-((S)-2-Carboxy-4,4-difluoro-pyrrolidin-1-ylmethyl)-4-(2-chloro-4-fluoro-phenyl)-2-(4-isopropyl-thiazol-2-yl)-1,4-dihydro-pyrimidine-5-carboxylic acid methyl ester], the EC50 with HBV [1] was determined as 4.4 nM. For the same compound, the CC50 at 5 days in data set [2] was 31 µM. In addition, the “Selectivity index (CC50/EC50)” value in the data set on HBV [3] turned out to be 7045. Besides, the thermodynamic solubility in data set [5] turned out to be 247 µg/mL (≈ 443 µM).
As for `COC(=O)C1=C(CN2CC(F)(F)C[C@H]2C(=O)O)NC(c2nccn2C)=N[C@H]1c1ccc(F)cc1Cl` [Example 32, (R)-6-((S)-2-Carboxy-4,4-difluoro-pyrrolidin-1-ylmethyl)-4-(2-chloro-4-fluoro-phenyl)-2-(1-methyl-1H-imidazol-2-yl)-1,4-dihydro-pyrimidine-5-carboxylic acid methyl ester], in the data set on HBV [1], the EC50 worked out at 13 nM. In addition, the CC50 at 5 days in data set [2] stood at 40 µM. Also, the “Selectivity index (CC50/EC50)” value in the data set with HBV [3] came out at 3125. Moreover, the “Human Hepatic Clearance” value in data set [4] stood at 5.04 mL/min/kg. For the same compound, the thermodynamic solubility in data set [5] is 632 µg/mL (≈ 1230 µM).
The matching figures for `CCOC(=O)C1=C(CN2CC(F)(F)C[C@H]2C(=O)O)NC(c2nccs2)=N[C@H]1c1ccc(F)cc1Cl` [Example 34, (R)-6-((S)-2-Carboxy-4,4-difluoro-pyrrolidin-1-ylmethyl)-4-(2-chloro-4-fluoro-phenyl)-2-thiazol-2-yl-1,4-dihydro-pyrimidine-5-carboxylic acid ethyl ester]: 10 nM, above 100 µM, above 10000, 7.46 mL/min/kg and 531 µg/mL (≈ 1000 µM).
`COC(=O)C1=C(CN2CCOC[C@H]2C(=O)O)NC(c2nc(SC)cs2)=N[C@H]1c1ccc(F)cc1Cl` [Example 61, (3S)-4-[[(4R)-4-(2-Chloro-4-fluorophenyl)-5-methoxycarbonyl-2-(4-methylsulfanyl-1,3-thiazol-2-yl)-1,4-dihydropyrimidin-6-yl]methyl]morpholine-3-carboxylic acid]: in the data set with HBV [1], the 50% effective concentration (EC50) is 18 nM. The CC50 at 5 days in data set [2] was 56 µM. For the same compound, the “Selectivity index (CC50/EC50)” value in the data set with HBV [3] is 3133. The same compound gave a thermodynamic solubility in data set [5] of 495 µg/mL (≈ 915 µM).
Regarding `COC(=O)C1=C(CN2CCO[C@H](C)[C@H]2C(=O)O)NC(c2nccs2)=N[C@H]1c1ccccc1Br` [Example 119, (2R,3S)-4-[(R)-6-(2-Bromo-phenyl)-5-methoxycarbonyl-2-thiazol-2-yl-3,6-dihydro-pyrimidin-4-ylmethyl]-2-methyl-morpholine-3-carboxylic acid], the EC50 with HBV [1] turned out to be 3 nM. In addition, the half-maximal cytotoxic concentration (CC50) at 5 days in data set [2] was above 100 µM. The “Selectivity index (CC50/EC50)” value in the data set on HBV [3] is reported as above 33333. For the same compound, in data set [4], the “Human Hepatic Clearance” value amounted to 0.85 mL/min/kg.
In the same order, the values of `CCOC(=O)C1=C(CN2CCOC[C@H]2C(=O)O)NC(c2nccs2)=N[C@H]1c1ccccc1I` [Example 129, (3S)-4-[[(4R)-5-Ethoxycarbonyl-4-(2-iodophenyl)-2-(1,3-thiazol-2-yl)-1,4-dihydropyrimidin-6-yl]methyl]morpholine-3 carboxylic acid] are 7.6 nM, above 100 µM, above 13158 and 4.25 mL/min/kg.
